Measured values as given in ChEMBL document CHEMBL5725899, “Benzofurans substituted with primary benzamide as HCV inhibitors” (2018).
pEC50: −log10 of the molar value.

Test: HCV Replicon Luciferase Assay: To evaluate compound efficacy, titrated compounds were transferred to sterile 384-well tissue culture treated plates, and the plates were seeded with HCV replicon cells (50 μL at a density of 2.4×10^3 cells/well) in DMEM containing 4% FBS (final DMSO concentration at 0.5%). After 3 days incubation at 37° C., cells were analyzed for Renilla Luciferase activity using the EnduRen substrate (Promega cat #E6485) according to the manufacturer's directions. Briefly, the EnduRen substrate was diluted in DMEM and then added to the plates to a final concentration of 7.5 μM. The plates were incubated for at least 1 h at 37° C. then read on a Viewlux Imager (PerkinElmer) using a luminescence program. The 50% effective concentration (EC50) was calculated using the four-parameter logistic formula noted above.To assess cytotoxicity of compounds, Cell Titer-Blue (Promega) was added to the EnduRen-containing plates and incubated for at least 4 hrs at 37° C. The fluorescence signal from each well was read using a Viewlux Imager. All CC50 values were calculated using the four-parameter logistic formula.
Details: 72 h

SMILES | pEC50
CNC(=O)c1c(-c2ccc(F)cc2)oc2cc(N(CCF)S(C)(=O)=O)c(-c3cccc(C(=O)N[C@H](COC)C4CC4)c3)cc12 | > 7.00
CNC(=O)c1c(-c2ccc(F)cc2)oc2cc(N(CCF)S(C)(=O)=O)c(-c3cccc(C(=O)N[C@@H](COC)C4CC4)c3)cc12 | > 7.00
